Results published in US9079866B2, “Flap modulators” (JANSSEN PHARMACEUTICA NV, priority 2013, dated 2015).
Structures can show the parent of a compound that is named as a salt. Where two headings read alike, the source gives them in different places.

Assays:
[1] = tested on: leukotriene pathway in human whole blood (LTB4 levels); test: Human whole blood assay (A23187-stimulated LTB4); type: cell-based; conditions: Homo sapiens, human whole blood diluted 1:1, A23187-stimulated; read-out: LTB4 IC50 1:1
Outline: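 Compounds are pre-incubated 15 min at 37° Celsius in RPMI-diluted (1:1) heparinised whole blood before a 30 min A23187 stimulus (7 μg/mL). Plasma LTB4 is read by immunoassay kit, with IC50 calculated from a 4-parameter equation.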

human FLAP = human FLAP (Homo sapiens (Human), UniProt P20292); test: FLAP binding assay (HTRF format)
Sequence of human FLAP (P20292 whole entry): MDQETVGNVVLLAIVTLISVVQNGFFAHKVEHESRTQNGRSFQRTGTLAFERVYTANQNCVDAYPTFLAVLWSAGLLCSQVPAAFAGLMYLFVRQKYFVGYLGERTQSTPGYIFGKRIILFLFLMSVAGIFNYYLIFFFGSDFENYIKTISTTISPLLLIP
Outline: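 Samples were run in duplicate on each of two assay plates, the results were averaged, and the signal was expressed as an HTRF ratio.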

SMILES | IC50 [1] | Ki (human FLAP; wild type FLAP, HTRF format) | Ki (human FLAP; read-out: FLAP Binding wild type HTRF Ki)
CC(C)(C)NS(=O)(=O)c1ccccc1-c1ccc(-c2cnc3[nH]cnc3n2)c(F)c1 [Example 447, N-tert-Butyl-3′-fluoro-4′-(1H-imidazo[4,5-b]pyrazin-5-yl)biphenyl-2-sulfonamide] | 144 nM | 3 nM | –
CC(C)(C)NS(=O)(=O)c1ccccc1-c1ccc(-c2cnc(N)c(N)c2)c(F)c1 [Example 448, N-tert-Butyl-4′-(5,6-diaminopyridin-3-yl)-3′-fluorobiphenyl-2-sulfonamide] | 112 nM | 10 nM | –
CNS(=O)(=O)c1ccccc1-c1ccc(-c2cnc(N)c(C)n2)c(F)c1 [Example 449, 4′-(5-Amino-6-methylpyrazin-2-yl)-3′-fluoro-N-methylbiphenyl-2-sulfonamide] | 79 nM | 22 nM | –
CC(C)(C)NS(=O)(=O)c1ccccc1-c1ccc(-c2cnc(N)c(C#N)c2)c(F)c1 [Example 450, 4′-(6-Amino-5-cyanopyridin-3-yl)-N-tert-butyl-3′-fluorobiphenyl-2-sulfonamide trifluoroacetic acid salt] | 340 nM | 74 nM | –
CC(C)(C)NS(=O)(=O)c1ccccc1-c1ccc(-c2cnc(N)c(Cl)c2)c(F)c1 [Example 451, 4′-(6-Amino-5-chloropyridin-3-yl)-N-tert-butyl-3′-fluorobiphenyl-2-sulfonamide trifluoroacetic acid salt] | 38 nM | 2 nM | –
CC(C)(C)NS(=O)(=O)c1ccccc1-c1ccc(-c2cnc(N)c(C(F)(F)F)c2)c(F)c1 [Example 452, 4′-[6-Amino-5-(trifluoromethyl)pyridin-3-yl]-N-tert-butyl-3′-fluorobiphenyl-2-sulfonamide trifluoroacetic acid salt] | 1950 nM | – | 81 nM
CC(C)(C)NS(=O)(=O)c1ccccc1-c1ccc(-c2cnc(N)nc2C(F)(F)F)c(F)c1 [Example 453, 4′-[2-Amino-4-(trifluoromethyl)pyrimidin-5-yl]-N-tert-butyl-3′-fluorobiphenyl-2-sulfonamide trifluoroacetic acid salt] | > 10000 nM | > 10000 nM | –
Cc1nc(N)ncc1-c1ccc(-c2ccccc2S(=O)(=O)NC(C)(C)C)cc1F [Example 454, 4-′-(2-Amino-4-methylpyrimidin-5-yl)-N-tert-butyl-3′-fluorobiphenyl-2-sulfonamide trifluoroacetic acid salt] | 345 nM | 12 nM | –
CC(C)(C)NS(=O)(=O)c1ccccc1-c1ccc(-c2cnc3[nH]cc(CO)c3c2)c(F)c1 [Example 455, N-tert-Butyl-3′-fluoro-4′-[3-(hydroxymethyl)-1H-pyrrolo[2,3-b]pyridin-5-yl]biphenyl-2-sulfonamide] | 94 nM | 1 nM | –
Nc1cc(-c2ccc(-c3ccccc3S(=O)(=O)NC3(CO)CCCC3)cc2F)cc2cc[nH]c12 [Example 456, 4′-(7-Amino-1H-indol-5-yl)-3′-fluoro-N-[1-(hydroxymethyl)cyclopentyl]biphenyl-2-sulfonamide] | 114 nM | 3 nM | –
CNS(=O)(=O)c1ccccc1-c1ccc(-c2cnc3[nH]cc(CO)c3c2)c(F)c1 [Example 457, 3′-Fluoro-4′-[3-(hydroxymethyl)-1H-pyrrolo[2,3-b]pyridin-5-yl]-N-methylbiphenyl-2-sulfonamide] | 140 nM | 3 nM | –
CS(=O)(=O)c1ccccc1-c1ccc(-c2cnc(N)cn2)c(F)c1F [Example 461, 5-[2,3-Difluoro-2′-(methylsulfonyl)biphenyl-4-yl]pyrazin-2-amine] | 209 nM | 41 nM | –
CC(C)(C)NS(=O)(=O)c1ccccc1-c1ccc(-c2cnc(N)cn2)c(F)c1F [Example 462, 4′-(5-Aminopyrazin-2-yl)-N-tert-butyl-2′,3′-difluorobiphenyl-2-sulfonamide] | 62 nM | 2 nM | –
CNS(=O)(=O)c1ccccc1-c1ccc(-c2cnc(N)nc2)c(F)c1F [Example 465, 4′-(2-Aminopyrimidin-5-yl)-2′,3′-difluoro-N-methylbiphenyl-2-sulfonamide trifluoroacetic acid salt] | 957 nM | 186 nM | –
Nc1cnc(-c2ccc(-c3ccc(OC(F)(F)F)cc3F)cc2F)cn1 [Example 467, 5-[2′,3-Difluoro-4′-(trifluoromethoxy)biphenyl-4-yl]pyrazin-2-amine] | 2830 nM | 250 nM | –
Nc1cnc(-c2ccc(-c3ccccc3Cl)cc2F)cn1 [Example 469, 5-(2′-Chloro-3-fluorobiphenyl-4-yl)pyrazin-2-amine] | 2350 nM | 250 nM | –
Nc1cnc(-c2ccc(-c3ccc(C(F)(F)F)cc3F)cc2F)cn1 [Example 471, 5-[2′,3-Difluoro-4′-(trifluoromethyl)biphenyl-4-yl]pyrazin-2-amine] | 3400 nM | 250 nM | –
Nc1cnc(-c2ccc(-c3ccccc3C(F)(F)F)cc2F)cn1 [Example 472, 5-[3-Fluoro-2′-(trifluoromethyl)biphenyl-4-yl]pyrazin-2-amine] | 2520 nM | 145 nM | –
COc1ccccc1-c1ccc(-c2cnc(N)cn2)c(F)c1 [Example 473, 5-(3-Fluoro-2′-methoxybiphenyl-4-yl)pyrazin-2-amine] | 1410 nM | 113 nM | –

SMILES | IC50 [1] | Ki (human FLAP; wild type FLAP, HTRF format) | Ki (human FLAP; read-out: FLAP Binding wild type HTRF Ki)
CSc1ccccc1-c1ccc(-c2cnc(N)cn2)c(F)c1 [Example 474, 5-[3-Fluoro-2′-(methylsulfanyl)biphenyl-4-yl]pyrazin-2-amine] | 2650 nM | 21 nM | –
Nc1cnc(-c2ccc(-c3ccccc3O)cc2F)cn1 [Example 476, 4′-(5-Aminopyrazin-2-yl)-3′-fluorobiphenyl-2-ol] | 891 nM | 32 nM | –
Nc1cnc(-c2ccc(-c3ccccc3S(=O)(=O)c3ccccc3)cc2F)cn1 [Example 477, 5-[3-Fluoro-2′-(phenylsulfonyl)biphenyl-4-yl]pyrazin-2-amine] | 738 nM | 16 nM | –
Nc1cnc(-c2ccc(-c3ccccc3NS(=O)(=O)c3ccccc3)cc2F)cn1 [Example 479, N-[4′-(5-Aminopyrazin-2-yl)-3′-fluorobiphenyl-2-yl]benzenesulfonamide] | 571 nM | 6 nM | –
Nc1cnc(-c2ccc(-c3ccccc3OCC(F)(F)F)cc2F)cn1 [Example 484, 5-[3-Fluoro-2′-(2,2,2-trifluoroethoxy)biphenyl-4-yl]pyrazin-2-amine] | 3460 nM | 78 nM | –
CC(C)Oc1ccccc1-c1ccc(-c2cnc(N)cn2)c(F)c1 [Example 487, 5-[3-Fluoro-2′-(1-methylethoxy)biphenyl-4-yl]pyrazin-2-amine] | 444 nM | 54 nM | –
Nc1cnc(-c2ccc(-c3cccnc3OCC3CC3)cc2F)cn1 [Example 488, 5-{4-[2-(Cyclopropylmethoxy)pyridin-3-yl]-2-fluorophenyl}pyrazin-2-amine] | 1650 nM | 97 nM | –
CN(c1ccccc1-c1ccc(-c2cnc(N)cn2)c(F)c1)S(C)(=O)=O [Example 490, N-[4′-(5-Aminopyrazin-2-yl)-3′-fluorobiphenyl-2-yl]-N-methylmethanesulfonmide] | 269 nM | 354 nM | –
CCS(=O)(=O)Nc1ccccc1-c1ccc(-c2cnc3[nH]ccc3n2)c(F)c1 [Example 491, N-[3′-Fluoro-4′-(5H-pyrrolo[2,3-b]pyrazin-2-yl)biphenyl-2-yl]ethanesulfonamide] | 215 nM | 15 nM | –
CN(c1ccccc1-c1ccc(-c2cnc3[nH]ccc3n2)c(F)c1)S(C)(=O)=O [Example 492, N-[3′-Fluoro-4′-(5H-pyrrolo[2,3-b]pyrazin-2-yl)biphenyl-2-yl]-N-methylmethanesulfonamide] | 155 nM | 15 nM | –
CCS(=O)(=O)N(C)c1ccccc1-c1ccc(-c2cnc3[nH]ccc3n2)c(F)c1 [Example 493, N-[3′-Fluoro-4′-(5H-pyrrolo[2,3-b]pyrazin-2-yl)biphenyl-2-yl]-N-methylethanesulfonamide] | 303 nM | 7 nM | –
CCS(=O)(=O)N(C)c1ccccc1-c1ccc(-c2cnc(N)cn2)c(F)c1 [Example 494, N-[4′-(5-Aminopyrazin-2-yl)-3′-fluorobiphenyl-2-yl]-N-methylethanesulfonamide] | 99 nM | 32 nM | –
CC(C)CS(=O)(=O)Nc1ccccc1-c1ccc(-c2cnc3[nH]ccc3n2)c(F)c1 [Example 495, N-[3′-Fluoro-4′-(5H-pyrrolo[2,3-b]pyrazin-2-yl)biphenyl-2-yl]-2-methylpropane-1-sulfonamide] | 509 nM | 4 nM | –
CCN(c1ccccc1-c1ccc(-c2cnc(N)cn2)c(F)c1)S(C)(=O)=O [Example 496, N-[4′-(5-Aminopyrazin-2-yl)-3′-fluorobiphenyl-2-yl]-N-ethylmethanesulfonamide] | 165 nM | 19 nM | –
CC(C)CS(=O)(=O)N(C)c1ccccc1-c1ccc(-c2cnc(N)cn2)c(F)c1 [Example 497, N-[4′-(5-Aminopyrazin-2-yl)-3′-fluorobiphenyl-2-yl]-N,2-dimethylpropane-1-sulfonamide] | 510 nM | 25 nM | –
O=C(c1ccccc1-c1ccc(-c2cnc3[nH]ccc3c2)c(F)c1)N1CCOCC1 [Example 498, 5-[3-Fluoro-2′-(morpholin-4-ylcarbonyl)biphenyl-4-yl]-1H-pyrrolo[2,3-b]pyridine] | 111 nM | 16 nM | –
O=C(c1ccccc1-c1ccc(-c2cnc3[nH]ccc3n2)c(F)c1)N1CCOCC1 [Example 500, 2-[3-Fluoro-2′-(morpholin-4-ylcarbonyl)biphenyl-4-yl]-5H-pyrrolo[2,3-b]pyrazine] | 139 nM | 48 nM | –
CC(C)(C)NC(=O)c1cc(F)ccc1-c1ccc(-c2cnc(N)cn2)c(F)c1 [Example 502, 4′-(5-Aminopyrazin-2-yl)-N-tert-butyl-3′,4-difluorobiphenyl-2-carboxamide] | 363 nM | 83 nM | –
